Patent US8563738B2, “Ligands for copper-catalyzed azide-alkyne cycloaddition reactions” (The Scripps Research Institute, priority 2007, dated 2013)

Key:
[1] = Second-order rate constants of CuAAC reaction by LC-MS of quenched aliquots; conditions: for relative catalytic rate (second-order specific activity): ligand:Cu 2:1, 0.1 mM Cu, 1-2 mM substrates, 4:1 DMSO:aqueous buffer, sodium ascorbate; for change in rate with pH: pH of the aqueous component raised from 7 to 8
Description: The relative effectiveness of Cu-ligand complexes was evaluated on the reaction between phenylacetylene and benzyl azide in 4:1 DMSO:aqueous buffer containing sodium ascorbate as reducing agent, which has served as the standard reaction in previous mechanistic studies (Rodionov, V. O.; et al. Angew. Chem. Int. Ed. 2005, 44, 2210-2215). Ligand:Cu ratios are used herein to describe the amounts of each component added, and designate mixtures of ligands and copper ions according to those ratios for convenience. However, it must be emphasized that the active catalysts are not necessarily composed of those same ratios of ligand and metal as are placed in the reaction vessel. The equilibria that govern the composition of these catalysts are discussed below, and their study will be the subject of a separate publication.
Absolute rates were determined under relatively dilute conditions (1-2 mM in substrates), which were required to slow the reactions enough so that aliquots could be reliably taken over a substantial fraction of the completion curve. Each aliquot was immediately quenched and the amount of product formed monitored by quantitative LC-MS against an internal standard. In this way, the clean conversion to triazole was verified in each case, information that is not available by following the disappearance of azide or alkyne by infrared spectroscopy. Plots of product concentrations vs. time fitted very well to second-order kinetics over at least 70% of the reaction (FIG. 2A). […] For this reason, comparisons were made between second-order specific activities (rate constants determined at a standard Cu concentration of 0.1 mM) for catalysts composed of 2:1 mixtures of ligands and Cu(I), in the presence of excess ascorbate relative to Cu.
Reagent stock solutions were freshly prepared before use. In a typical experiment, reactions were set up in the first column of a deep-well polypropylene microtiter plate (2.5 mL well volume). 100 μL of 30% H2O2 and 100 μL of ethanol were dispensed into all other wells.
The reactions were started by the addition of the final component (typically CuSO4 solution). Aliquots of 100 μL were taken at 1-5 minute intervals from the reaction wells with a multichannel pipetman, and transferred to the subsequent columns of wells for quenching. After the desired number of aliquots have been quenched in this fashion, the contents of the plate were transferred to a standard polystyrene 96-well plate for analysis.
LC-MS analysis was performed on an Agilent 1100 (G1946D) instrument, equipped with a 35 mm Agilent ZORBAX® 3.5μ or 1.8μ SB-C18 column. The elution solvent for the detection of 1-benzyl-4-phenyl-1,2,3-triazole was 55:45 H2O:CH3CN, with 0.5% TFA. Analysis of the other triazole products required a solvent gradient (typically from 50:50 to 25:75 H2O:CH3CN, 0.5% TFA over the course of 4-5 minutes). Detection was performed in single ion mode (SIM), which typically allowed for quantitative triazole detection down to 0.1 μM. 1-benzyl-4-phenyl-1,2,3-triazole-d7 was used as internal reference for all experiments.
Equations (2) and (3) were used to find the value of k (kobs) that gives the best fit curve to the experimental data of [P] vs. time.
FIG. 2 summarizes the rate data. Note that the rate constants obtained here are really specific activities at 0.10 mM Cu catalyst concentration. Very similar results were obtained at pH 8 in the presence of 180 mM vs. 10 mM HEPES buffer.
FIG. 2B. Conditions: 1 mM BnN3, 2 mM PhCCH, 0.1 mM CuSO4, 0.2 mM ligand, 4:1 DMSO:HEPES (180 mM), 25 mM NaAsc; pH verified with meter after ascorbate addition. The dots mark observed data points; the solid line is the best second-order fit; an initial “burst” of catalytic activity was not counted in the reported rate constants. Experimental error in rate constants upon repeat measurement is <15% (usually ca. 10%), except where noted.
FIG. 2C. […]

[2] = Ligand screening by reaction calorimetry (peak reaction power); conditions: high reactant concentrations, 1% Cu, 4:1 DMSO:aqueous, 65° C.
Source text: Reaction calorimetry was used to evaluate the relative merits of various ligands under practical conditions of organic synthesis, e.g., involving high concentrations of azide and alkyne reagents and low loadings of catalyst. After correction for instrumental heat transfer parameters, thermograms provide a direct real-time measure of reaction rate (power output); integration gives the overall time-vs.-completion curve. […] All such measurements were made in the same 4:1 DMSO:aqueous solvent as before, but at 65° C. rather than room temperature, in order to keep the product triazole in solution at the higher concentrations used.
Calorimetry was performed in an Omnical INSIGHT® 10-channel reaction calorimeter using 40 mL glass vials. In a typical run all the reaction components but one were introduced into the vials inside an inert atmosphere glovebox, and vials were sealed with septum caps. The last reaction component to be added was placed in a Hamilton gastight syringe. The vials and syringes were then allowed to equilibrate inside the preheated instrument (65° C.) for 30 minutes. The reaction was started in all vials by depressing all of the syringes simultaneously. Two vials out of ten were charged only with solvent to obtain readings allowing for compensation for the heat of mixing. The thermograms registered in these two channels upon addition of the last component were used to construct the baseline for the other 8 channels.
Since heat is not transferred to the instrument sensor instantaneously, the thermogram registered by the instrument is dependent on the characteristics of the instrument and reaction vessel. Correction for these extraneous factors must be applied to the recorded thermograms to obtain instrument-independent data (Rosner, T.; et al. J. Am. Chem. Soc. 2001, 123, 1848-1855; Liu, J.-S.; et al. Thermochimica Acta 1994, 236, 113-122). The appropriate dynamic correction function is built into the instrument operating software. Use of vendor supplied software produces the same result as manual correction.
By the same token, catalysts such as Cu.1 that give observable, but not very strong, calorimetry signals cannot be fully analyzed by converting thermograms to completion curves, because a significant amount of the total energy output is lost below the detection threshold of the instrument. TBTA (1) falls into this category, classified as “moderate” ligands. […] However, peak power values (i.e., maximum reaction rate) provided a reproducible relative measure of relative catalytic efficiency.
Ligands were screened under the following conditions: 250 mM benzyl azide, 454 mM phenylacetylene, 2 mM CuSO4, 4 mM ligand, 25 mM sodium ascorbate. Phenylacetylene was the last component added. Initial screening was performed with at least two independent trials for each ligand. Candidates showing promising activity were then examined with at least three independent trials to obtain reliable estimations of experimental error.

Solubility of ligands = conditions: for solubility in common organic solvents: including DMSO
[3] = Second-order rate constants of CuAAC reaction by LC-MS of quenched aliquots; conditions: 4:1 DMSO:buffer, Tris buffer over a standard range of concentrations

Compound | relative catalytic rate (second-order specific activity) [1] | relative catalytic activity by calorimetry [2] | also measured
c1ccc2[nH]c(CN(Cc3nc4ccccc4s3)Cc3nc4ccccc4s3)nc2c1 [(Bth)2(BimH), N-((1H-benzimidazol-2-yl)methyl)-1-(benzothiazol-2-yl)-N-(benzothiazol-2-ylmethyl)methanamine] | best ligand in the series | largely inactive | effect of HEPES buffer on rate ([1]; 180 mM HEPES): faster turnover; change in rate with pH [1]: very little change in rate
c1ccc2[nH]c(CN(Cc3nc4ccccc4[nH]3)Cc3nc4ccccc4s3)nc2c1 [(Bth)(BimH)2, N,N-bis((1H-benzimidazol-2-yl)methyl)-1-(benzothiazol-2-yl)methanamine] | – | largely inactive | –
CCOC(=O)Cn1c(CN(Cc2nc3ccccc3n2CC(=O)OCC)Cc2nc3ccccc3n2CC(=O)OCC)nc2ccccc21 [(BimC1E)3, Triethyl 2,2′,2″-(2,2′,2″-nitrilotris(methylene)tris(1H-benzimidazole-2,1-diyl)) triethanoate] | performing as well as the parent structure (BimH)3 | – | –
O=C([O-])CCCn1c(CN(Cc2nc3ccccc3n2CCCC(=O)[O-])Cc2nc3ccccc3n2CCCC(=O)[O-])nc2ccccc21.[K+].[K+].[K+] [(BimC3A)3] | noticeably better catalyst performance | best in the class | –
c1ccc(CN(Cc2ccccn2)Cc2ccccn2)nc1 [(Py)3, tris(pyridylmethyl)amine, reference compound] | slower than those observed for the “ligand-free” case | one of the best ligands in calorimetry screening | –
Cn1ccn(-c2cccc(-n3ccn(C)[c]3=[Cu][Cl])n2)[c]1=[Cu][Cl] [Ligand S3, reference compound] | – | in the range of TBTA (1) | –
O=S(=O)(O)c1ccc2[nH]c(CN(Cc3nc4cc(S(=O)(=O)O)ccc4[nH]3)Cc3nc4cc(S(=O)(=O)O)ccc4[nH]3)nc2c1 [(BimH/S)3, reference compound] | strong rate acceleration through a wide pH range | – | –
CCOC(=O)CCCCn1c(CN(Cc2nc3ccccc3n2CCCCC(=O)OCC)Cc2nc3ccccc3n2CCCCC(=O)OCC)nc2ccccc21 [(BimC4E)3, Triethyl 5,5′,5″-(2,2′,2″-nitrilotris(methylene)tris(1H-benzimidazole-2,1-diyl))tripentanoate] | just as active as its hydrolyzed (carboxylate) analog | – | –
O=C([O-])CCCCCn1c(CN(Cc2nc3ccccc3n2CCCCCC(=O)[O-])Cc2nc3ccccc3n2CCCCCC(=O)[O-])nc2ccccc21.[K+].[K+].[K+] [(BimC5A)3] | noticeably better catalyst performance | best in the class | –
c1ccc2sc(CN(Cc3nc4ccccc4s3)Cc3nc4ccccc4s3)nc2c1 [(Bth)3, Tris-(2-benzothiazolylmethyl)amine] | – | largely inactive | change in rate with pH [1]: more sensitive; solubility in common organic solvents (Solubility of ligands): unusually low solubility
O=C([O-])Cn1c(CN(Cc2nc3ccccc3n2CC(=O)[O-])Cc2nc3ccccc3n2CC(=O)[O-])nc2ccccc21.[K+].[K+].[K+] [(BimC1A)3] | one of the least effective catalysts in the series | – | water solubility (Solubility of ligands; water): water-soluble
Cc1cc(C)c(-n2ccn(-c3c(C)cc(C)cc3C)[c]2=[Cu][Cl])c(C)c1 [Ligand S1, reference compound] | – | no detectable exothermic heat flow | –
c1ccc2[nH]c(CN(Cc3nc4ccccc4[nH]3)Cc3nc4ccccc4[nH]3)nc2c1 [(BimH)3, Tris-(2-benzimidazolylmethyl)amine, reference compound] | – | – | change in rate with pH [1]: more sensitive; effect of Tris buffer on rate [3]: slowed significantly
O=C([O-])CCCCn1c(CN(Cc2nc3ccccc3n2CCCCC(=O)[O-])Cc2nc3ccccc3n2CCCCC(=O)[O-])nc2ccccc21.[K+].[K+].[K+] [(BimC4A)3, Potassium 5,5′,5″-(2,2′,2″-nitrilotris(methylene)tris(1H-benzimidazole-2,1-diyl))tripentanoate] | noticeably better catalyst performance | best in the class | relative catalytic rate (second-order specific activity) ([1]; listed as (BimC4A)): strong rate acceleration through a wide pH range
CC(C)(C)OC(=O)Cn1c(CN(Cc2nc3ccccc3n2CC(=O)OC(C)(C)C)Cc2nc3ccccc3n2CC(=O)OC(C)(C)C)nc2ccccc21 [(BimC1E′)3] | performing as well as the parent structure (BimH)3 | – | –
c1ccc2[nH]c(CNCc3nc4ccccc4[nH]3)nc2c1 [H(BimH)2, Bis-(2-benzimidazolylmethyl)amine, reference compound] | slower than those observed for the “ligand-free” case | – | –
Cn1c(CN(Cc2nc3ccccc3n2C)Cc2nc3ccccc3n2C)nc2ccccc21 [(BimC1H)3] | performing as well as the parent structure (BimH)3 | – | solubility in common organic solvents (Solubility of ligands): unusually low solubility
